# Results taken from paper PMC5447332 (Targeted Oncology, 2017).
# Values joined by “and” are separate entries in the source; they are usually repeats but may differ in a detail not shown here. Identical values can stand only once. “Also recorded” adds a separate entry of the source. Like-named read-outs stand apart in the source and are kept apart here.
# How the values were obtained:
# [1] = preclinical studies; ref not given; cited from earlier work
# [2] = BEZ235 200 mg twice daily; cited from earlier work
# [3] = Pharmacokinetics of BEZ235 in plasma, phase Ib combination with everolimus; assay type: in vivo, human (patients with advanced solid tumors); settings: for Apparent clearance, CL/F / Cmax / Dose / half-life / AUC(0-t) / AUC(0-inf) / Cmax / Tmax: plasma; for half-life / AUC(0-t) / AUC(0-inf) / Cmax / Tmax: human
# [4] = whole blood; ref not given; cited from earlier work
# [5] = Pharmacokinetics of everolimus in whole blood when co-administered with BEZ235; assay type: in vivo, human (patients with advanced solid tumors)
# [6] = cited from earlier work
# [7] = BEZ235 200 mg/d + everolimus 2.5 mg/d oral, day 1, mean ± SE
# [8] = BEZ235 200 mg/d + everolimus 2.5 mg/d oral, day 28, mean ± SE
# [9] = BEZ235 400 mg/d + everolimus 2.5 mg/d oral, day 1, mean ± SE
# [10] = BEZ235 400 mg/d + everolimus 2.5 mg/d oral, day 28, mean ± SE
# [11] = BEZ235 800 mg/d + everolimus 2.5 mg/d oral, day 1, mean ± SE
# [12] = BEZ235 800 mg/d + everolimus 2.5 mg/d oral, day 28, mean ± SE
# [13] = po, BEZ235 200 mg/d + everolimus 2.5 mg/d oral, day 1, mean ± SE
# [14] = po, BEZ235 200 mg/d + everolimus 2.5 mg/d oral, day 28, mean ± SE
# [15] = po, BEZ235 400 mg/d + everolimus 2.5 mg/d oral, day 1, mean ± SE
# [16] = po, BEZ235 400 mg/d + everolimus 2.5 mg/d oral, day 28, mean ± SE
# [17] = po, BEZ235 800 mg/d + everolimus 2.5 mg/d oral, day 1, mean ± SE
# [18] = po, BEZ235 800 mg/d + everolimus 2.5 mg/d oral, day 28, mean ± SE
# [19] = everolimus 2.5 mg/d oral + BEZ235 200-800 mg/d, day 1, whole blood, mean ± SE
smiles,measurement,setting,value
"Cn1c(=O)n(-c2ccc(C(C)(C)C#N)cc2)c2c3cc(-c4cnc5ccccc5c4)ccc3ncc21 [BEZ235, dactolisib]",Aqueous solubility,[1],poor
same,AUC0-24,[2],752.9 ng·h/mL
same,"Apparent clearance, CL/F",[3]; [7],629.6 ± 278.1 L/h
same,Cmax / Dose,[3]; [7],0.2 ng/mL/mg and 0.2 ± 0.1 ng/mL/mg
same,"Apparent clearance, CL/F",[3]; [8],116.3 ± 24.4 L/h
same,Cmax / Dose,[3]; [8],1.1 ± 0.6 ng/mL/mg
same,"Apparent clearance, CL/F",[3]; [9],644.3 ± 192.9 L/h
same,Cmax / Dose,[3]; [9],0.3 ng/mL/mg and 0.3 ± 0.1 ng/mL/mg
same,"Apparent clearance, CL/F",[3]; [10],309.3 ± 241.3 L/h
same,Cmax / Dose,[3]; [10],0.6 ± 0.5 ng/mL/mg
same,"Apparent clearance, CL/F",[3]; [11],773.9 ± 262.1 L/h
same,Cmax / Dose,[3]; [11],0.3 ng/mL/mg and 0.3 ± 0.1 ng/mL/mg
same,"Apparent clearance, CL/F",[3]; [12],355.9 ± 246.6 L/h
same,Cmax / Dose,[3]; [12],1.1 ± 0.7 ng/mL/mg
same,Drug levels at steady state relative to single dose administration,[3]; BEZ235 200-800 mg,~3 fold
same,half-life,"[3]; oral, Steady-state half-life, range over 200-800 mg/day",15 to 43 h
same,AUC(0-t),"[3]; po, AUC 0-24, BEZ235 200 mg/d + everolimus 2.5 mg/d oral, day 1, mean ± SE",433 ± 96 ng·h/mL
same,AUC(0-t),"[3]; po, AUC 0-24, BEZ235 200 mg/d + everolimus 2.5 mg/d oral, day 28, mean ± SE",1470 ± 515 ng·h/mL
same,AUC(0-t),"[3]; po, AUC 0-24, BEZ235 400 mg/d + everolimus 2.5 mg/d oral, day 1, mean ± SE",741 ± 171 ng·h/mL
same,AUC(0-t),"[3]; po, AUC 0-24, BEZ235 400 mg/d + everolimus 2.5 mg/d oral, day 28, mean ± SE",1460 ± 1250 ng·h/mL
same,AUC(0-t),"[3]; po, AUC 0-24, BEZ235 800 mg/d + everolimus 2.5 mg/d oral, day 1, mean ± SE",2080 ± 666 ng·h/mL
same,AUC(0-t),"[3]; po, AUC 0-24, BEZ235 800 mg/d + everolimus 2.5 mg/d oral, day 28, mean ± SE",7800 ± 5610 ng·h/mL
same,AUC(0-inf),[3]; [13],468 ± 118 ng·h/mL
same,AUC(0-inf),[3]; [14],1490 ± 691 ng·h/mL
same,AUC(0-inf),[3]; [15],831 ± 163 ng·h/mL
same,AUC(0-inf),[3]; [16],2710 ± 2340 ng·h/mL
same,AUC(0-inf),[3]; [17],2170 ± 675 ng·h/mL
same,AUC(0-inf),[3]; [18],8880 ± 6590 ng·h/mL
same,Cmax,[3]; [13],45.2 ± 11.4 ng/mL
same,Cmax,[3]; [14],214 ± 114 ng/mL
same,Cmax,[3]; [15],102 ± 22.4 ng/mL
same,Cmax,[3]; [16],227 ± 198 ng/mL
same,Cmax,[3]; [17],243 ± 52.7 ng/mL
same,Cmax,[3]; [18],880 ± 570 ng/mL
same,half-life,"[3]; po, Terminal half-life, BEZ235 200 mg/d + everolimus 2.5 mg/d oral, day 1, mean ± SE",3.2 ± 1 h
same,half-life,"[3]; po, Terminal half-life, BEZ235 200 mg/d + everolimus 2.5 mg/d oral, day 28 (steady state), mean ± SE",19.2 ± 2.5 h
same,half-life,"[3]; po, Terminal half-life, BEZ235 400 mg/d + everolimus 2.5 mg/d oral, day 1, mean ± SE",8.6 ± 1.5 h
same,half-life,"[3]; po, Terminal half-life, BEZ235 400 mg/d + everolimus 2.5 mg/d oral, day 28 (steady state), mean ± SE",43.4 ± 10.8 h
same,half-life,"[3]; po, Terminal half-life, BEZ235 800 mg/d + everolimus 2.5 mg/d oral, day 1, mean ± SE",5.9 ± 0.7 h
same,half-life,"[3]; po, Terminal half-life, BEZ235 800 mg/d + everolimus 2.5 mg/d oral, day 28 (steady state), mean ± SE",15 ± 6.4 h
same,Tmax,[3]; [13],3.8 ± 1.6 h
same,Tmax,[3]; [14],2.7 ± 0.7 h
same,Tmax,[3]; [15],2.5 ± 0.9 h
same,Tmax,[3]; [16],1.5 ± 0.5 h
same,Tmax,[3]; [17],2.6 ± 0.8 h
same,Tmax,[3]; [18],2 h
same,Accumulation higher than anticipated,"[3]; multiple dosing, day 28",2–3 fold
same,Oral bioavailability (oral availability),"[3]; patients, SDS sachet, this study",quite low; also recorded: remained low
same,Average plasma concentration,"[3]; steady state, doses of 200 to 800 mg/day",61 to 324 ng/mL
"CO[C@H]1C[C@@H]2CC[C@@H](C)[C@@](O)(O2)C(=O)C(=O)N2CCCC[C@H]2C(=O)O[C@H]([C@H](C)C[C@@H]2CC[C@@H](OCCO)[C@H](OC)C2)CC(=O)[C@H](C)/C=C(\C)[C@@H](O)[C@@H](OC)C(=O)[C@H](C)C[C@H](C)/C=C/C=C/C=C/1C [Everolimus, everolimus]",Binding to erythrocytes,[4],85%
same,"Increase in dose-normalized AUC0-24 (exposure), combination with BEZ235 compared to everolimus alone",[5]; everolimus 2.5 mg/d + BEZ235 vs reported everolimus alone (ref 23),1.7 fold
same,"Apparent clearance, CL/F",[5]; [19],24.76 ± 2.91 L/h
same,Cmax / Dose,[5]; [19],5.63 ± 0.6 ng/mL/mg
same,Cmax / Dose,"[5]; everolimus 2.5 mg/d oral + BEZ235 200-800 mg/d, day 28, whole blood, mean ± SE",12.67 ± 2.96 ng/mL/mg
same,Reported everolimus clearance,[6]; 5 mg dosed alone,21.3 L/h
same,Reported everolimus clearance,[6]; 10 mg dosed alone,27.3 L/h
same,Median Tmax,"[6]; everolimus after oral administration, ref not given",1 to 2 h
same,Dose-normalized Cmax,"[6]; everolimus dosed alone, cancer patients",6.3 ng/mL
same,Oral bioavailability,"[6]; everolimus, ref not given",low
